Test results as given in patent US6476263B1, “Compounds for inhibiting β-amyloid peptide release and/or its synthesis” (Elan Pharmaceuticals, Inc., priority 1996, dated 2002).
Residues, ends and D or L forms follow the SMILES beside them. *: point of attachment. PhAc = O=C(Cc1ccccc1)*; Boc = CC(C)(C)OC(=O)*

SMILES | melting point [°C]
COC(=O)[C@H](CC(C)C)NC(=O)[C@H](C)NC(=O)Cc1ccccc1 [Example 201, N-[N-(Phenylacetyl)-L-alaninyl]-L-leucine Methyl Ester] (HELM PEPTIDE1{[O=C(Cc1ccccc1)[*:2]].A.L.[CO[*:1]]}$$$$V2.0) | 102.5 to 105
COC(=O)[C@H](Cc1ccccc1)NC(=O)[C@H](C)NC(=O)Cc1ccccc1 [Example 204, N-[N-(Phenylacetyl)-L-alaninyl]-L-phenylalanine Methyl Ester] | 148 to 149.5
COC(=O)[C@H](CCCCNC(=O)OC(C)(C)C)NC(=O)[C@H](C)NC(=O)Cc1ccccc1 [Example 205, N-[N-(Phenylacetyl)-L-alaninyl]-Nε-(tert-butoxycarbonyl)-L-lysine Methyl Ester] (PhAc-Ala-Lys(Boc)-OMe) | 119 to 121
COC(=O)CNC(=O)[C@H](C)NC(=O)Cc1ccccc1 [Example 206, N-[N-(Phenylacetyl)-L-alaninyl]glycine Methyl Ester] (HELM PEPTIDE1{[O=C(Cc1ccccc1)[*:2]].A.G.[CO[*:1]]}$$$$V2.0) | 152 to 153.5
COC(=O)[C@@H](NC(=O)[C@H](C)NC(=O)Cc1ccccc1)C(C)C [Example 207, N-[N-(Phenylacetyl)-L-alaninyl]-L-valine Methyl Ester] (HELM PEPTIDE1{[O=C(Cc1ccccc1)[*:2]].A.V.[CO[*:1]]}$$$$V2.0) | 112 to 115
CC[C@H](NC(=O)[C@H](C)NC(=O)Cc1ccccc1)C(=O)OC [Example 208, Methyl N-[N-(Phenylacetyl)-L-alaninyl]-2-(S)-aminobutanoate] (HELM PEPTIDE1{[O=C(Cc1ccccc1)[*:2]].A.[Abu].[CO[*:1]]}$$$$V2.0) | 120
CCC[C@H](NC(=O)[C@H](C)NC(=O)Cc1ccccc1)C(=O)OC [Example 209, Methyl N-[N-(Phenylacetyl)-L-alaninyl]-2-(S)-aminopentanoate] (HELM PEPTIDE1{[O=C(Cc1ccccc1)[*:2]].A.[Nva].[CO[*:1]]}$$$$V2.0) | 135 to 137
COC(=O)C1CCCCN1C(=O)[C@H](C)NC(=O)Cc1cc(F)cc(F)c1 (stereo partly drawn) [Example 218, Methyl 1-[N-(3,5-Difluorophenylacetyl)-L-alaninyl]piperidine-2-carboxylate] | 114 to 118
COC(=O)[C@@H](NC(=O)CC1CCCC[C@@H]1NC(=O)Cc1cc(F)cc(F)c1)c1ccccc1 (stereo partly drawn) [Example 225, N-[N-(3,5-Difluorophenylacetyl)-2-(S)-aminocyclohexylacetyl]-L-phenylglycine Methyl Ester] | 234.4
O=C(Cc1cc(F)cc(F)c1)N[C@H](C(=O)N[C@H](CO)c1ccccc1)c1ccccc1 [Example 245, N-[N-(3,5-Difluorophenylacetyl)-L-phenylglycinyl]-L-phenylglycinol] | 231.4
O=C(CC1CC1)N[C@H](C(=O)N[C@H](CO)c1ccccc1)c1ccccc1 [Example 246, N-[N-(Cyclopropaneacetyl)-L-phenylglycinyl]-L-phenylglycinol] | 202.5
O=C(CC1CCCC1)N[C@H](C(=O)N[C@H](CO)c1ccccc1)c1ccccc1 [Example 247, N-[N-(Cyclopentaneacetyl)-L-phenylglycinyl]-L-phenylglycinol] | 201.4
CCCC[C@H](NC(=O)Cc1cc(F)cc(F)c1)C(=O)N[C@H](C(=O)OC)c1ccccc1 [Example 252, N-[N-(3,5-Difluorophenylacetyl)-L-norleucinyl]-L-phenylglycine Methyl Ester] | 188 to 189.5
CCC[C@H](NC(=O)Cc1cc(F)cc(F)c1)C(=O)N[C@H](C(=O)OC)c1ccccc1 [Example 253, N-[N-(3,5-Difluorophenylacetyl)-L-norvalinyl]-L-phenylglycine Methyl Ester] | 204 to 205
COC(=O)[C@@H](NC(=O)[C@@H](NC(=O)Cc1cc(F)cc(F)c1)C(C)(C)C)c1ccccc1 [Example 254, N-[N-(3,5-Difluorophenylacetyl)-L-tert-leucinyl]-L-phenylglycine Methyl Ester] | 176.4
CC[C@H](C)[C@H](NC(=O)Cc1cc(F)cc(F)c1)C(=O)N[C@H](C(=O)OC)c1ccccc1 [Example 255, N-[N-(3,5-Difluorophenylacetyl)-L-isoleucinyl]-L-phenylglycine Methyl Ester] | 228.8
COC(=O)[C@@H](NC(=O)[C@@H](NC(=O)Cc1cc(F)cc(F)c1)C1CC1)c1ccccc1 [Example 257, N-[N-(3,5-Difluorophenylacetyl)-(S)-2-amino-2-(cyclopropyl)acetyl]-L-phenylglycine Methyl Ester] | 225 to 226.5
COC(=O)[C@@H](NC(=O)[C@@H](NC(=O)Cc1cc(F)cc(F)c1)c1ccsc1)c1ccccc1 [Example 258, N-[N-(3,5-Difluorophenylacetyl)-(S)-2-amino-2-(thien-3-yl)acetyl]-L-phenylglycine Methyl Ester] | 229.3
COC(=O)[C@@H](NC(=O)[C@H](NC(=O)Cc1cc(F)cc(F)c1)c1cccs1)c1ccccc1 [Example 259, N-[N-(3,5-Difluorophenylacetyl)-(S)-2-amino-2-(thien-2-yl)acetyl]-L-phenylglycine Methyl Ester] | 230.8
CC(C)(C)OC(=O)[C@@H](NC(=O)[C@@H](NC(=O)Cc1cc(F)cc(F)c1)c1ccccc1)c1ccccc1 [Example 263, N-[N-(3,5-Difluorophenylacetyl)-L-phenylglycinyl]-L-phenylglycine tert-Butyl Ester] | 185
CC(C)(C)OC(=O)[C@@H](NC(=O)[C@@H](NC(=O)CC1CC1)c1ccccc1)c1ccccc1 [Example 264, N-[N-(Cyclopropylacetyl)-L-phenylglycinyl]-L-phenylglycine tert-Butyl Ester] | 187.5
CC(C)(C)OC(=O)[C@@H](NC(=O)[C@@H](NC(=O)CC1CCCC1)c1ccccc1)c1ccccc1 [Example 265, N-[N-(Cyclopentylacetyl)-L-phenylglycinyl]-L-phenylglycine tert-Butyl Ester] | 190.8
CCCC[C@H](NC(=O)[C@H](C)NC(=O)Cc1cc(F)cc(F)c1)C(=O)O [Example 327, N-[N-(3,5-Difluorophenylacetyl)-L-alaninyl]-L-norleucine] | 158.5 to 160.5
C[C@H](NC(=O)CC1CCCC1)C(=O)N[C@H](C(=O)OC(C)(C)C)c1ccccc1 [Example 328, N-[N-(Cyclopentaneacetyl)-L-alaninyl]-L-phenylglycine tert-Butyl Ester] | 133 to 138
